Test results reported in PubChem BioAssay AID2060892 (Molecular Pharmacology Branch, DTP, NCI, 2025).

Tested on: HOP-62 complex spheroids with HUVEC/MSC, viability
Assay: Anticancer human tumor HOP-62 cell line growth inhibition [RAS];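 also: spheroids exposed to agents for seven days before readout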;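 as to viability, T/C: 100% = DMSO vehicle control viability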
Settings: for IC50: curve of first compound; for viability, T/C: stronger effect = lower value
Summary of the method: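 Agents were tested in combination matrices in half-log decrements from a top concentration at or near clinical Cmax (10 microM if undetermined). Targets were multi-cell spheroids of tumour lines plus HUVEC and MSC stromal cells.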

Structure (SMILES): CC(=O)OC12COC1CC(O)C1(C)C(=O)C(O)C3=C(C)C(OC(=O)C(O)C(NC(=O)OC(C)(C)C)c4ccccc4)CC(O)(C(OC(=O)c4ccccc4)C21)C3(C)C (centres undefined) + CCn1c(-c2cccnc2C(C)OC)c2c3cc(ccc31)N1CCOC(CC(NC(=O)C(C(C)C)N(C)C(=O)C3(F)CCN(C(=O)C#CC(C)(C)N(C)C)CC3)C(=O)N3CCCC(N3)C(=O)OCC(C)(C)C2)C1
- IC50 (second compound 0.000949 µM): < 0.0316 µM
- IC50 (second compound 0.003 µM): < 0.0316 µM
- IC50 (second compound 0.00949 µM): < 0.0316 µM
- IC50 (second compound 0.03 µM): < 0.0316 µM
- IC50 (second compound 0.0949 µM): < 0.0316 µM
- IC50 (second compound 0.3 µM): < 0.0316 µM
- viability, T/C (second compound 0.000949 µM, first compound 0.0316 µM): 31%
- viability, T/C (second compound 0.000949 µM, first compound 0.1 µM): 29.6%
- viability, T/C (second compound 0.000949 µM, first compound 0.316 µM): 20.6%
- viability, T/C (second compound 0.000949 µM, first compound 1 µM): 34.7%
- viability, T/C (second compound 0.000949 µM, first compound 3.16 µM): 48.4%
- viability, T/C (second compound 0.000949 µM, first compound 10 µM): 45.6%
- viability, T/C (second compound 0.003 µM, first compound 0.0316 µM): 32.6%
- viability, T/C (second compound 0.003 µM, first compound 0.1 µM): 32.1%
- viability, T/C (second compound 0.003 µM, first compound 0.316 µM): 37%
- viability, T/C (second compound 0.003 µM, first compound 1 µM): 33.3%
- viability, T/C (second compound 0.003 µM, first compound 3.16 µM): 52.1%
- viability, T/C (second compound 0.003 µM, first compound 10 µM): 39.7%
- viability, T/C (second compound 0.00949 µM, first compound 0.0316 µM): 30.8%
- viability, T/C (second compound 0.00949 µM, first compound 0.1 µM): 31.6%
- viability, T/C (second compound 0.00949 µM, first compound 0.316 µM): 29.4%
- viability, T/C (second compound 0.00949 µM, first compound 1 µM): 36.3%
- viability, T/C (second compound 0.00949 µM, first compound 3.16 µM): 39.3%
- viability, T/C (second compound 0.00949 µM, first compound 10 µM): 43.2%
- viability, T/C (second compound 0.03 µM, first compound 0.0316 µM): 31.4%
- viability, T/C (second compound 0.03 µM, first compound 0.1 µM): 32.9%
- viability, T/C (second compound 0.03 µM, first compound 0.316 µM): 31%
- viability, T/C (second compound 0.03 µM, first compound 1 µM): 35.4%
- viability, T/C (second compound 0.03 µM, first compound 3.16 µM): 33.1%
- viability, T/C (second compound 0.03 µM, first compound 10 µM): 46.4%
- viability, T/C (second compound 0.0949 µM, first compound 0.0316 µM): 34.2%
- viability, T/C (second compound 0.0949 µM, first compound 0.1 µM): 34.1%
- viability, T/C (second compound 0.0949 µM, first compound 0.316 µM): 36.6%
- viability, T/C (second compound 0.0949 µM, first compound 1 µM): 37.3%
- viability, T/C (second compound 0.0949 µM, first compound 3.16 µM): 34.9%
- viability, T/C (second compound 0.0949 µM, first compound 10 µM): 42.1%
- viability, T/C (second compound 0.3 µM, first compound 0.0316 µM): 28.1%
- viability, T/C (second compound 0.3 µM, first compound 0.1 µM): 40.2%
- viability, T/C (second compound 0.3 µM, first compound 0.316 µM): 31.8%
- viability, T/C (second compound 0.3 µM, first compound 1 µM): 37.9%
- viability, T/C (second compound 0.3 µM, first compound 3.16 µM): 33.5%
- viability, T/C (second compound 0.3 µM, first compound 10 µM): 36.9%

Structure (SMILES): CCc1c2c(nc3ccc(O)cc13)-c1cc3c(c(=O)n1C2)COC(=O)[C@]3(O)CC + CCn1c(-c2cccnc2C(C)OC)c2c3cc(ccc31)N1CCOC(CC(NC(=O)C(C(C)C)N(C)C(=O)C3(F)CCN(C(=O)C#CC(C)(C)N(C)C)CC3)C(=O)N3CCCC(N3)C(=O)OCC(C)(C)C2)C1
- IC50 (second compound 0.000949 µM): < 0.000949 µM
- IC50 (second compound 0.003 µM): < 0.000949 µM
- IC50 (second compound 0.00949 µM): < 0.000949 µM
- IC50 (second compound 0.03 µM): < 0.000949 µM
- IC50 (second compound 0.0949 µM): < 0.000949 µM
- IC50 (second compound 0.3 µM): < 0.000949 µM
- viability, T/C (second compound 0.000949 µM, first compound 0.000949 µM): 45%
- viability, T/C (second compound 0.000949 µM, first compound 0.003 µM): 15.7%
- viability, T/C (second compound 0.000949 µM, first compound 0.00949 µM): 6.01%
- viability, T/C (second compound 0.000949 µM, first compound 0.03 µM): 6.3%
- viability, T/C (second compound 0.000949 µM, first compound 0.0949 µM): 4.47%
- viability, T/C (second compound 0.000949 µM, first compound 0.3 µM): 15.6%
- viability, T/C (second compound 0.003 µM, first compound 0.000949 µM): 45.6%
- viability, T/C (second compound 0.003 µM, first compound 0.003 µM): 14.3%
- viability, T/C (second compound 0.003 µM, first compound 0.00949 µM): 7.48%
- viability, T/C (second compound 0.003 µM, first compound 0.03 µM): 7.59%
- viability, T/C (second compound 0.003 µM, first compound 0.0949 µM): 5.27%
- viability, T/C (second compound 0.003 µM, first compound 0.3 µM): 2.57%
- viability, T/C (second compound 0.00949 µM, first compound 0.000949 µM): 41.5%
- viability, T/C (second compound 0.00949 µM, first compound 0.003 µM): 13.7%
- viability, T/C (second compound 0.00949 µM, first compound 0.00949 µM): 8.71%
- viability, T/C (second compound 0.00949 µM, first compound 0.03 µM): 5.6%
- viability, T/C (second compound 0.00949 µM, first compound 0.0949 µM): 3.2%
- viability, T/C (second compound 0.00949 µM, first compound 0.3 µM): 2.48%
- viability, T/C (second compound 0.03 µM, first compound 0.000949 µM): 41%
- viability, T/C (second compound 0.03 µM, first compound 0.003 µM): 14.1%
- viability, T/C (second compound 0.03 µM, first compound 0.00949 µM): 7.78%
- viability, T/C (second compound 0.03 µM, first compound 0.03 µM): 6.23%
- viability, T/C (second compound 0.03 µM, first compound 0.0949 µM): 2.8%
- viability, T/C (second compound 0.03 µM, first compound 0.3 µM): 3.13%
- viability, T/C (second compound 0.0949 µM, first compound 0.000949 µM): 36.4%
- viability, T/C (second compound 0.0949 µM, first compound 0.003 µM): 14.8%
- viability, T/C (second compound 0.0949 µM, first compound 0.00949 µM): 9.82%
- viability, T/C (second compound 0.0949 µM, first compound 0.03 µM): 6.01%
- viability, T/C (second compound 0.0949 µM, first compound 0.0949 µM): 2.96%
- viability, T/C (second compound 0.0949 µM, first compound 0.3 µM): 2.45%
- viability, T/C (second compound 0.3 µM, first compound 0.000949 µM): 28.9%
- viability, T/C (second compound 0.3 µM, first compound 0.003 µM): 13.9%
- viability, T/C (second compound 0.3 µM, first compound 0.00949 µM): 11%
- viability, T/C (second compound 0.3 µM, first compound 0.03 µM): 4.25%
- viability, T/C (second compound 0.3 µM, first compound 0.0949 µM): 3.87%
- viability, T/C (second compound 0.3 µM, first compound 0.3 µM): 2.14%
